Experimental data published in ChEMBL document CHEMBL1201862, “PubChem BioAssay data set” (2004).
Activity calls are given as the source filed them.

Assays:
Coagulation factor XII = target: T1, Coagulation factor XII (Homo sapiens, UniProt P00748); type: functional;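 note: activated factor XIIa alpha cleaving a fluorogenic AMC peptide substrate; inhibitor potency from loss of enzyme activity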
T1 sequence (P00748 whole entry): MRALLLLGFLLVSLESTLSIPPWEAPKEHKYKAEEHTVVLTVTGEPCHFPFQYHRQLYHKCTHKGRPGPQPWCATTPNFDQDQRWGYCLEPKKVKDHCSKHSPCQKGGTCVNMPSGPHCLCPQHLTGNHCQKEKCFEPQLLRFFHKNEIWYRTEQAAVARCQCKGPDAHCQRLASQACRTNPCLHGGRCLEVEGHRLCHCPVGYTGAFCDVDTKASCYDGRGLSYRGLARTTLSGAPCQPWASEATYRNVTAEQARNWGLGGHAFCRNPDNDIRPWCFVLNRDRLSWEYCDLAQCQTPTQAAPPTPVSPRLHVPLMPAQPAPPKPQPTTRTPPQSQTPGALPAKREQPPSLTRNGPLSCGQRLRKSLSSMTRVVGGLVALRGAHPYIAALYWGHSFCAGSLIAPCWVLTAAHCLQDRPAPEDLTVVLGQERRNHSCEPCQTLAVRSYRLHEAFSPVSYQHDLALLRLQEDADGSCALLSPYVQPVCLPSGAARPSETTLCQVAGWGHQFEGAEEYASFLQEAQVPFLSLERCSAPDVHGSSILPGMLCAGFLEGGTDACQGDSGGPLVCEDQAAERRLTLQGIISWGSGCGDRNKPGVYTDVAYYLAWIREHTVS

Melanocortin receptor 4 = Melanocortin receptor 4 (Homo sapiens, UniProt P32245); test: inhibitors of MC4R cAMP signaling – cell-based, TR-FRET, biased antagonists, dose response (AID 602298); type: functional;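 note: antagonist potency against agonist-stimulated cAMP production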
[1] = cAMP pathway inhibition in counterscreen cell line – TR-FRET cAMP detection, counter-screen for MC4R biased antagonist project, dose response (AID 602305); type: functional, cell-based;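 note: U2OS cells stimulated with forskolin near its EC80 as the cAMP inducer; potency is for inhibition of forskolin-stimulated cAMP signaling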
[2] = target: Ras and Rab interactor 1/Tyrosine-protein kinase ABL1 (Homo sapiens, UniProt P00519+Q13671); type: functional;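 note: biochemical TR-FRET dose-response test measuring inhibition of binding between Rin1 and Abl proteins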
[3] = blockers of CAL PDZ–TMR peptide complex – biochemical, fluorescence polarization, untagged CAL PDZ, cherry-pick, set 2, dose response (AID 602254); type: functional
[4] = target: Mitochondrial peptide methionine sulfoxide reductase (Bos taurus, UniProt P54149); test: Absorbance-based biochemical high throughput dose response assay for activators of Methionine sulfoxide reductase A (MsrA).; type: functional
[5] = target: T2, Apoptotic protease-activating factor 1 (Homo sapiens, UniProt O14727); test: SAR analysis of small molecule Activators of Apaf-1 in a Fluorescent assay.; type: functional; conditions: read-out: EC50_Mean;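 note: caspase-3 cleavage of fluorogenic Rh110 DEVD substrate downstream of apoptosome activation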
T2 sequence (O14727 whole entry): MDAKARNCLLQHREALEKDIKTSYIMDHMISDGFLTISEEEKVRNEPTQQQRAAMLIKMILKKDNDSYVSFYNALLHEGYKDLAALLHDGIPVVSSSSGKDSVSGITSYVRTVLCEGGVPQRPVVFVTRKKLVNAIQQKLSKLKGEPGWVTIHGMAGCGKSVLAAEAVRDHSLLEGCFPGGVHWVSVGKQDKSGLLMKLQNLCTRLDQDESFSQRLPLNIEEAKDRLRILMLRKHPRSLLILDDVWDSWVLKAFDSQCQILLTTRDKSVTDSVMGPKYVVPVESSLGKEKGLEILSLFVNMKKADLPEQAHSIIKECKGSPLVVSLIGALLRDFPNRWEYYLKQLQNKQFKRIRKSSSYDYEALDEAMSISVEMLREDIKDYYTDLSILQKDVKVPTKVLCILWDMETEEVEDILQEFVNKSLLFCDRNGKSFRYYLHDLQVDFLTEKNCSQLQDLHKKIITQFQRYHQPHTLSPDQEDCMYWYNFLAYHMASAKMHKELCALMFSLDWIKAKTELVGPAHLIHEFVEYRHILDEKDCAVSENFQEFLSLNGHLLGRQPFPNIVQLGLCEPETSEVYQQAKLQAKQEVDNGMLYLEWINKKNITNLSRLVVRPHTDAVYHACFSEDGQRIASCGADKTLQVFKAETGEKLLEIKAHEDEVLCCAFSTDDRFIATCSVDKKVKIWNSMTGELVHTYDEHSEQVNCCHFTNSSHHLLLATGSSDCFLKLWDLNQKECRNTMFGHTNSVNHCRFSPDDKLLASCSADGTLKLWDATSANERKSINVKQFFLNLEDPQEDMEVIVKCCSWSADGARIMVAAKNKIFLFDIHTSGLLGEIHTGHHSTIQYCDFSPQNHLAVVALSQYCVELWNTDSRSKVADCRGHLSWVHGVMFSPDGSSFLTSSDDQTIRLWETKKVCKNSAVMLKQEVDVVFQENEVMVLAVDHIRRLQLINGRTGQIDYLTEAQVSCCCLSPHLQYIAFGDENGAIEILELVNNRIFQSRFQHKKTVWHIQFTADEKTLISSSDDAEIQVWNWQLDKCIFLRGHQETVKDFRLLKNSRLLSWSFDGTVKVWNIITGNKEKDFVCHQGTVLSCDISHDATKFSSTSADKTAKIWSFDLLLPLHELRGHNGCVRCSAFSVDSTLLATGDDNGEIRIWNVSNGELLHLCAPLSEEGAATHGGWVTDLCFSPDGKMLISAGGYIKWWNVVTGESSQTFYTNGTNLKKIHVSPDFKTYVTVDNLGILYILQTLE

cells = type: functional
[6] = Vero cell cytotoxicity, cytotoxicity control for M. tuberculosis inhibitor project, purified and synthesized samples, set 3 (AID 504684); type: functional

Ras and Rab interactor 1/Tyrosine-protein kinase ABL1, sequence (P00519 whole entry): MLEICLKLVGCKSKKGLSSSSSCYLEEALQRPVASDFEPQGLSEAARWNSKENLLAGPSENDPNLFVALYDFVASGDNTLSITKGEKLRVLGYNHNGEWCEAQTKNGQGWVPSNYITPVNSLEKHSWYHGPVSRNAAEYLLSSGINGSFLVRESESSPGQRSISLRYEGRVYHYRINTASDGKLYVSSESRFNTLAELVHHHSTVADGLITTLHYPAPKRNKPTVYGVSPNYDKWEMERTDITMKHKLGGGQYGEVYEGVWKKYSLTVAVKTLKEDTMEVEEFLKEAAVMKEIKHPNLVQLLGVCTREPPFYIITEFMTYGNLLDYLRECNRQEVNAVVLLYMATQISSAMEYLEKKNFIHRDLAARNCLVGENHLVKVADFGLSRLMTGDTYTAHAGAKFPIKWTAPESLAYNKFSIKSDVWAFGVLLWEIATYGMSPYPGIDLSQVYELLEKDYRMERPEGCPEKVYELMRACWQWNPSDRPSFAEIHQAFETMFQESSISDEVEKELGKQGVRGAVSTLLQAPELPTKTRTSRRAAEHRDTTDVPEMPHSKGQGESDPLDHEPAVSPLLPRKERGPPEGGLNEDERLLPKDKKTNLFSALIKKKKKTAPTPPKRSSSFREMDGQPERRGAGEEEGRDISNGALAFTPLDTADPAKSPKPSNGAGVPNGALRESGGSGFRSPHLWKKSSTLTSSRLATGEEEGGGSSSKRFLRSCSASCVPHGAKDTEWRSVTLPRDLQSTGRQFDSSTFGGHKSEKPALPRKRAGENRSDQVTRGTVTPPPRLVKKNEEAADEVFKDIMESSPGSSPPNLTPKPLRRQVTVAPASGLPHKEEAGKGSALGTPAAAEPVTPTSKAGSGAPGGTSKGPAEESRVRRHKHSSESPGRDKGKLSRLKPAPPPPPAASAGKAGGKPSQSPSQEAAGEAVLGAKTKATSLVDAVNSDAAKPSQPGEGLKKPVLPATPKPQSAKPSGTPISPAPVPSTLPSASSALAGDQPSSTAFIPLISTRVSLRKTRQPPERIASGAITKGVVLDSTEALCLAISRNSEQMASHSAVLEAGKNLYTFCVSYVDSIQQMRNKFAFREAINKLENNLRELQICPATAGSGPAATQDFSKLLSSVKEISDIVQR
Ras and Rab interactor 1/Tyrosine-protein kinase ABL1, sequence (Q13671 whole entry): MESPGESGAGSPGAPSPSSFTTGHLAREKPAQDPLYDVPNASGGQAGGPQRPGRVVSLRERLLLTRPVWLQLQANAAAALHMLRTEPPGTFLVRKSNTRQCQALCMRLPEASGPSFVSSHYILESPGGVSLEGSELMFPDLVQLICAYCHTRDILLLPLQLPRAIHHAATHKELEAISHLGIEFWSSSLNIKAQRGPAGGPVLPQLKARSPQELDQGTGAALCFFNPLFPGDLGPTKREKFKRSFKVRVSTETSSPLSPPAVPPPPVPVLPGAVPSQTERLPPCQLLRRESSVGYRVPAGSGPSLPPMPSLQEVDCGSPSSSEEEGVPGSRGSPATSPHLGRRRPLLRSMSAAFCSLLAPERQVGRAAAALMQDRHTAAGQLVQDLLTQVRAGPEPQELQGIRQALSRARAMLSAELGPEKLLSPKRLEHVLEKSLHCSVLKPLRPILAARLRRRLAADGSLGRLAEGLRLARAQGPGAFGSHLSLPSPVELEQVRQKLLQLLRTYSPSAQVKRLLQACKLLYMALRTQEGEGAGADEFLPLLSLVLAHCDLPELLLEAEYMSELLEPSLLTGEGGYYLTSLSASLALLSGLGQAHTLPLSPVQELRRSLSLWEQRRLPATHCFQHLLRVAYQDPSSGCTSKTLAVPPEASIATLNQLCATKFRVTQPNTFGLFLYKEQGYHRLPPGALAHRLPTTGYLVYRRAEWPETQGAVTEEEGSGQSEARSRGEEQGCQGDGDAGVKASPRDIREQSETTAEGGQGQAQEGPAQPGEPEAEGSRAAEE
Mitochondrial peptide methionine sulfoxide reductase, sequence (P54149 whole entry): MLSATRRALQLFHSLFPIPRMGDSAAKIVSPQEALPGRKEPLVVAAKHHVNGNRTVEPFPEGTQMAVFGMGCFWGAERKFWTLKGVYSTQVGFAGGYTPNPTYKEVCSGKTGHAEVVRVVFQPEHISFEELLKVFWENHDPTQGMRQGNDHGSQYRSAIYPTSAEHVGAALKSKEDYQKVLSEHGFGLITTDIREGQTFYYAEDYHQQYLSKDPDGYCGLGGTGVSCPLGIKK
Melanocortin receptor 4, sequence (P32245 whole entry): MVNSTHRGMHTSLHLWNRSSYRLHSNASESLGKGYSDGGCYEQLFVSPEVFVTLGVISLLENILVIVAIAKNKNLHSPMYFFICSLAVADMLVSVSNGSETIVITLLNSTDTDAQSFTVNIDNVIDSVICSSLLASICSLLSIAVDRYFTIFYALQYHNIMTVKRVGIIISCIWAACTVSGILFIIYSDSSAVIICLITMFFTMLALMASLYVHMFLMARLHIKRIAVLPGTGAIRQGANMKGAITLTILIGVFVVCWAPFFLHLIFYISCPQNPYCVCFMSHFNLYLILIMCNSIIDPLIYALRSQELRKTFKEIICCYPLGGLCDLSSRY

Compound: O=C(Nc1nnc(-c2ccccc2)s1)c1cc(S(=O)(=O)N2CCOCC2)c(Cl)cc1Cl
- IC50 (Coagulation factor XII): > 50 µM (inactive)
- IC50 (Melanocortin receptor 4): > 2.39 µM (active)
- IC50 [1]: > 64.6 µM (inactive)

Compound: COc1cc(C(=O)OCC(=O)Nc2ccc(S(=O)(=O)N3CCCC3)cc2)cc(OC)c1OC
- IC50 [2]: 12.4 µM (inactive)

Compound: COc1ccccc1N(CCOc1ccccc1)S(=O)(=O)c1ccccc1
- AC50 [3]: 77.2 µM (active)

Compound: CC(C)[C@H](NC(=O)c1ccccc1)C(=O)OCc1nc2scc(-c3ccccc3)c2c(=O)[nH]1
- EC50 [4]: > 104 µM (inactive)

Compound: CCC(C)(C)c1ccc(O)c(N2CC(C(=O)O)CC2=O)c1 (centres undefined)
- EC50 [5]: > 100 µM (inactive)

Compound: COC(=O)CCc1nc2c(C#N)c(-c3ccc(Cl)cc3)ccn2n1
- IC50 (cells): 5.43 µM (active)
- CC50 [6]: > 100 µM (active)
